Paper PMC9774438, “Effects of Synthetic Short Cationic Antimicrobial Peptides on the Catalytic Activity of Myeloperoxidase, Reducing Its Oxidative Capacity” (Antioxidants, 2022)
Entries after “also recorded” stand apart in the source; their conditions may differ.

Assays:
[1] = target: T1, myeloperoxidase (MPO) (Homo sapiens, UniProt P05164); assay: MPO chlorinating activity (Celestine Blue B assay); type: biochemical; details: 0.008–8 μM peptide, 0.8 nM MPO heme, 200 μM CB, 150 mM NaCl, 50 μM H2O2, 50 mM Na-acetate pH 5.5
T1 construct: Native myeloperoxidase (MPO) was obtained from human leukocyte extract by successive chromatography on heparin-Sepharose and phenyl-agarose; from tissue; host or cells: human leukocyte extract
T1 sequence (P05164 279-745 limits assumed): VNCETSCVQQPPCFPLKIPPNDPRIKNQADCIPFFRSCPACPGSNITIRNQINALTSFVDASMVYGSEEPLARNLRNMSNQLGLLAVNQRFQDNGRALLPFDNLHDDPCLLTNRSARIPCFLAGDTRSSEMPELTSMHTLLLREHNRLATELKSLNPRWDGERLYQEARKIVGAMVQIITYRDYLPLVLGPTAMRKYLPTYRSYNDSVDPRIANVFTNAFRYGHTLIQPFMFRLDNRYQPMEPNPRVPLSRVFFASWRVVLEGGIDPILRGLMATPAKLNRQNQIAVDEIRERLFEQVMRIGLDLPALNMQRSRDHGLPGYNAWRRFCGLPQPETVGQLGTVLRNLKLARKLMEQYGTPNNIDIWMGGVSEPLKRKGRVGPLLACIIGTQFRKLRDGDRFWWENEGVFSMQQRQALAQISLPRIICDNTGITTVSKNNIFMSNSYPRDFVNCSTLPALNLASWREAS
T1 sequence (P05164 165-273 limits assumed): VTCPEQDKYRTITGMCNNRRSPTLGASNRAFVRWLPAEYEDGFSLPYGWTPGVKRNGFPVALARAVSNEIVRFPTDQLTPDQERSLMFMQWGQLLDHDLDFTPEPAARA
Experimental: MPO chlorinating activity was evaluated fluorometrically using Celestine Blue B (CB) which was oxidized to fluorescent glycol (λex = 487 nm, λem = 578 nm) by taurine N-chloramine produced in the reaction of taurine with HOCl generated by MPO [39]. The assay was performed in 96-plate format. MPO was preincubated with peptides for 5 min in a volume of 100 μL, with the concentrations being: MPO, 1.6 nM heme and peptide, 16 nM–16 μM. Then, 100 μL aliquots of CB-containing mix (CB, 400 µM; H2O2, 100 µM; taurine, 4 mM; KI, 10 µM; NaCl, 300 mM; 50 mM Na-acetate buffer, pH 5.5) were added to MPO/peptide and to 100 μL of HOCl standards (0–150 μM). The fluorescence measurement was made with a CLARIOstar multimodal plate reader (BMG Labtech, Ortenberg, Germany) at 15 min after the reaction started. Fluorescence intensity detected for HOCl standards of HOCl was used for calculating the chlorinating activity as mole of HOCl per mole of MPO heme per second. To determine the type of CAMP-induced inhibition, KM and Vmax were obtained by varying substrates of MPO: NaCl in a final concentration from 25 to 300 mM, or H2O2 in a final concentration from 5 to 80 µM.
(§1) The Hannes-Wolf plots were made as ([Substrate]/V = f([Substrate]). KM was equal in magnitude to the intercept made on the abscissa axis by the approximating straight line; Vmax was calculated as a reciprocal value of the straight-line slope. The inhibition constant (Ki) for noncompetitive inhibition was calculated as follows: Ki = [I]/((Vmax − Vmax’)/Vmax’); Ki for competitive inhibition was calculated as follows: Ki = [I]/((KM’ − KM)/KM); Ki for mixed inhibition was calculated as follows: Ki = [I]/(((KM’ − KM)/KM)^2 + ((Vmax − Vmax’)/Vmax’))^2)^0.5; and Ki for uncompetitive inhibition was calculated as follows: Ki = [I]/(((KM − KM’)/KM’)^2 + ((Vmax – Vmax’)/Vmax’))^2)^0.5, where [I]—concentration of inhibitor (CAMP), KM—Michaelis constant without inhibitor, Vmax—maximal rate without inhibitor, KM’—Michaelis constant in the presence of inhibitor, Vmax’—maximal rate in the presence of inhibitor.
Chlorinating activity is a distinctive feature of MPO as compared with other peroxidases and it is an important property, enabling MPO to combat microbes. We tested whether the inhibitory effects of pept_1545 and Hm-AMP8 on peroxidase activity extend to MPO chlorinating activity. Chlorinating activity was measured using a fluorometric CB-based assay. To determine the concentration dependence of the effect of CAMPs on MPO chlorinating activity, the 0.008–8 μM concentration range (corresponding to 10–10,000 peptide molecules per heme) was used.

[2] = target: T1, myeloperoxidase (MPO); assay: MPO peroxidase activity (Amplex Red assay); type: biochemical; details: 0.8–50 μM peptide, 8 nM MPO heme, 50 μM Amplex Red, 25 μM H2O2, 50 mM K-phosphate pH 7.4
Experimental: MPO peroxidase activity was evaluated fluorometrically using Amplex Red^TM reagent which was oxidized by MPO to the fluorescent resorufin (λex = 530 nm, λem = 590 nm). The assay was performed in 96-plate format. The final reaction mixture in 50 mM K-phosphate buffer (pH 7.4) was as follows: MPO, 8 nM heme; peptide, […]; H2O2, 25 μM; Amplex Red reagent, 50 μM. MPO was preincubated with peptides for 5 min in a volume of 100 μl. Then, Amplex Red was added, and the enzymatic reaction was initiated by adding H2O2 (a final probe volume of 200 μL per well). The fluorescence measurement was made with a CLARIOstar multimodal plate reader (BMG Labtech, Ortenberg, Germany) at 5 min after the beginning of the reaction. To determine the type of CAMP-induced inhibition, KM and Vmax were obtained by varying substrates of MPO: Amplex Red in a final concentration from 1 to 62.5 μM, or H2O2 in a final concentration from 0.625 to 20 μM.
as §1
From the experiments with varying concentrations of H2O2 (0.01–200 μM) and Amplex Red (6.25–100 μM), the optimal concentrations of 25 μM H2O2 and 50 μM Amplex Red were chosen for further work. The 0.8–50 μM concentration range (corresponding to 100–6250 peptide molecules per heme) was used to determine the concentration dependence of the effect of CAMPs on peroxidase activity of MPO.

[3] = 10 mM Na-phosphate pH 7.4; limits peptide/heme ratio to 45:1
[4] = target: T1, myeloperoxidase (MPO); assay: Dityrosine fluorescence detection during MPO/H2O2 reaction; type: biochemical; details: 40 μM peptide, 0.4 μM MPO heme, 50 μM H2O2, 10 mM Na-phosphate pH 7.4, 0.2 mM DTPA, λex 315 nm
Experimental: Formation of dityrosine during the MPO reaction with CAMPs was monitored by fluorescence on a CM 2203 spectrofluorometer (Minsk, Belarus) with an excitation wavelength of 315 nm. Emission spectra were recorded between 350 nm and 500 nm, with the maximum being at 405–410 nm. MPO (0.4 μM) in a 1 mL cuvette was mixed with CAMP (40 μM) at pH 7.4 in 10 mM Na-phosphate buffer supplemented with 0.2 mM DTPA, and the starting emission spectrum was recorded. Succeeding spectra were taken at time intervals following the addition of 50 μM H2O2 to the continuously stirred reaction mixture.
Since dityrosine is an intensely fluorescent compound, the fluorescence method can be applied to detect its formation. MPO (0.4 µM heme) and tyrosine-containing Hm-AMP2 (40 µM) or HM-AMP8 (40 µM) were mixed in a cuvette in 10 mM Na-phosphate buffer, pH 7.4. No emission peak characteristic of dityrosine was observed. Succeeding spectra were recorded at time intervals after H2O2 (50 µM) addition. Dityrosine formation was monitored by the increase in fluorescence intensity.

Sequence: EKRWRRLIFNYF [Hm-AMP2, synthetic cationic antimicrobial peptide …]
- effect on MPO chlorinating activity [1]: no significant effect
- effect on MPO peroxidase activity [2]: no inhibition; also recorded: No effect
- solubility in phosphate buffer [3]: poor solubility
- dityrosine formation (fluorescence) [4]: time-dependent generation of dityrosine; also recorded: diY formation
